The structures appear in SMILES notation.

From the METLIN SMRT retention time set (Domingo-Almenara et al. 2019) come the findings set out here.

The data set is described as follows: gradient 5% acetonitrile 3 min, to 50% in 2 min, to 85% in 15 min, held 3 min, 100 µL/min. Particulars: column: Zorbax Extend-C18 2.1 x 50 mm; eluents: water / acetonitrile, 0.1% formic acid. An outline of the steps: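 Values are retention times taken from adduct peaks that software picked and an analyst inspected. The pure standards were run as mixtures of ~100 molecules on HPLC linked to a quadrupole time-of-flight mass spectrometer, in positive and negative ionization mode. A Zorbax Extend-C18 column (2.1 × 50 mm, 1.8 μm) was used at 100 μL/min with water and acetonitrile, each including 0.1% formic acid.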
On to `Brc1ccc(-c2nnc(SCCCCOc3ccccc3)o2)cc1`, for which the RP-LC retention time is 1280 s.
The result for `COc1ccc(-c2nc(C)c3c(n2)N(C(C)C)C(=O)C3)cc1` reads 929 s; that for `CCc1ccc(CNC(=O)C2CC(=O)N(c3ccc4c(c3)CCN4C(C)=O)C2)cc1` (stereo not drawn), 932 s.
Turning to `Cc1sc(NC(=O)CCCC(=O)O)nc1-c1ccccc1`, the RP-LC retention time stood at 752 s.
The result for `CC(C)C(=O)Nc1nc(-c2ccc(F)cc2)cs1` reads 916 s.
Molecule `O=C(CSc1nnc(-c2cccnc2)o1)c1ccc2c(c1)OCCO2` returned an RP-LC retention time of 715 s.
Regarding `CCOc1nc2c(c(C)nn2-c2ccccc2)c(C)c1CCC(=O)N1CCN(c2ccccn2)CC1`, the RP-LC retention time was 822 s.
Consider `CCN(CC)CCCNC(=O)C1c2ccccc2C(=O)N1Cc1ccc(C)cc1` (stereo not drawn), for which the RP-LC retention time was 633 s.
The result for `O=C(c1ccc2c(c1)OCO2)N1CCC2(CC1)N(c1ccccc1)C(=O)CS2(=O)=O` reads 685 s; that for `Cc1ccc(CN2CCc3nc(N4CCN(c5ccccc5F)CC4)ncc3C2)cc1`, 824 s; that for `Cn1c(CNC(=O)CCC2CCCN(c3cc(NC4CC4)ncn3)C2)nc2ccccc21` (stereo not drawn), 560 s.
`O=C(Nc1cc(-c2ccccn2)no1)c1cccc(C(F)(F)F)c1` came in with an RP-LC retention time of 916 s.
The result for `Cn1c(N2CCC(C(=O)N3CCN(Cc4ccc5c(c4)OCO5)CC3)CC2)cc(=O)n(C)c1=O` reads 579 s; that for `CCc1ccccc1NC(=O)N1CCC(N2CCN(Cc3ccccc3)C(=O)C2=O)CC1`, 730 s.
The result for `O=C([C@@H]1C[C@H](F)CN1S(=O)(=O)c1cccc(F)c1)N1CCc2ccccc2C1` reads 920 s; that for `O=C(NCC1(N2CCOCC2)CCOC1)Nc1ccccc1C(F)(F)F` (stereo not drawn), 596 s; that for `CC1(C(=O)NC2CCN(c3cc(N4CCOCC4)cnn3)C2)CCCCC1` (stereo not drawn), 569 s.
On to `Cc1ccc2nc(NC(=O)CN3CCC(C(N)=O)CC3)sc2c1`, for which the RP-LC retention time came to 592 s.
The result for `O=C(C1=CN(c2cccc(C(F)(F)F)c2)c2cc(F)ccc2S1(=O)=O)N1CCOCC1` reads 858 s; that for `Cc1nc(C)c(C(=O)N2CC(N(CC(C)C)C3CCN(C)CC3)C2)s1`, 567 s; that for `O=C(NC1CCN(Cc2ccccc2)CC1)c1ccccc1Cl`, 549 s.
As to `CN(C)C(CNC(=O)Cc1cccs1)c1ccccc1Cl` (stereo not drawn), the RP-LC retention time was 550 s.
The result for `CCOc1ccccc1NC(=O)Cn1c(=O)n(Cc2cccs2)c(=O)c2ncccc21` reads 772 s.
The result for `CCc1ccc(C2=C(C)C(N3CCC(C(=O)NCCN4CCCC4)CC3)=NS2(=O)=O)cc1` reads 671 s; that for `COCC(=O)NC1CCN(c2ccc(C)c(C)c2)C1=O` (stereo not drawn), 705 s; that for `O=C(CC1=C2CCCCC2NC1=O)Nc1ccccc1F` (stereo not drawn), 693 s.
The result for `CCN1CCN(c2cc(-c3nc(-c4cccc(F)c4)no3)c3ccccc3n2)CC1` reads 821 s; that for `Cc1ccc(NC(=O)Cn2nc(N3CCCC(C)C3)c3ccccc3c2=O)cc1F` (stereo not drawn), 1220 s; that for `CC(=O)N(Cc1nn(C)c2c1CN(S(=O)(=O)c1ccc(Cl)cc1)CC2)c1ccccc1`, 844 s.
In turn, `COC(=O)c1c(-c2ccccc2)noc1NCc1ccccc1` showed an RP-LC retention time of 1050 s.
The result for `CCOc1cccc(-c2noc(Cn3ccn(-c4ccccc4OC)c(=O)c3=O)n2)c1` reads 863 s; that for `CN(C)S(=O)(=O)c1ccc(-c2nnc(C(=O)N3CCCC3)o2)cc1`, 727 s.
The result for `CCOc1ccccc1C(=O)N1CCC2(CC1)NCc1ccccc1-n1ccnc12` reads 572 s; that for `COc1cccc(C2CC(c3ccc(F)cc3)=NC3(CCN(C(C)=O)CC3)N2)c1O` (stereo not drawn), 656 s.
The result for `CCN1CCCCc2cc(C(=O)NCCC3CCN(C(C)C)CC3)sc21` reads 680 s; that for `O=C(Nc1ccccc1F)N1CCC(N2C(=O)C3(CCCCC3)C2c2ccccc2)CC1` (stereo not drawn), 940 s.
Regarding `O=C(NCc1cc(F)ccc1F)C1CCc2nc(N3CCCC3)ncc2C1` (stereo not drawn), the RP-LC retention time was 646 s.
The result for `CNC(=O)C1CCCN(c2nc3ncn(CC(=O)Nc4cccc(SC)c4)c(=O)c3s2)C1` (stereo not drawn) reads 669 s; that for `COc1ccc(NS(=O)(=O)c2c(C)sc(C)c2-c2cc(C(F)(F)F)on2)cc1Cl`, 1180 s; that for `CCOC(=O)C1CCC(CNC(=O)N2CCN(Cc3nc4ccc(Cl)cc4o3)CC2)CC1` (stereo not drawn), 697 s.
The result for `CCc1ccc(CNC(=O)Cn2c(C)nc3onc(CC)c3c2=O)cc1` reads 885 s.
The result for `CCOC(=O)C1=C(CN2CCC(C(=O)OCC)CC2)NC(=O)NC1c1ccc(Cl)cc1` (stereo not drawn) reads 673 s; that for `Cc1ccnc(NC(=O)NCCCSc2nnc(-c3ccccc3)o2)n1`, 727 s; that for `CC(=O)N1C[C@@H]2CCCN3CCC[C@@H]([C@H]23)[C@H]1CCCC(=O)N(C)CCc1c(C)nn(C)c1C`, 556 s.
As for `Cc1ccc(-n2cc3c(c(C(=O)Nc4ccc5c(c4)OCCO5)c2=O)CC(C)(C)CC3=O)cc1`, the RP-LC retention time was 1070 s.
As to `CCC(C(=O)NCc1ccc(C)o1)n1nc(C)c2nn(-c3ccccc3)c(C)c2c1=O` (stereo not drawn), the RP-LC retention time was determined as 870 s.
The result for `Cc1c(Cl)cccc1-c1ccc(CNCCc2ccc(S(N)(=O)=O)cc2)o1` reads 704 s.
The result for `Clc1cccc(-c2noc(Cc3nc(-c4ccccc4)cs3)n2)c1` reads 1280 s; that for `CCc1cc(C(=O)Nc2ccc(C#N)cc2)nc2cc(-c3ccco3)nn12`, 1130 s.
`O=C(CN1CCC2(CC1)N=C(c1ccc(Cl)cc1)C(=O)N2)Nc1ccc2c(c1)OCO2` registered an RP-LC retention time of 681 s.
The result for `Cc1ccc(-c2nc3cccnc3n2CCCNC(=O)Nc2ccc3c(c2)OCCO3)cc1` reads 698 s; that for `COc1ccc(NS(=O)(=O)c2cc3c(s2)CCN(C(=O)C2CC2)C3)cc1`, 774 s; that for `CCN1CCCC1CNC(=O)c1nnc(-c2ccc(S(=O)(=O)N3CCC(C)CC3)cc2)o1` (stereo not drawn), 703 s.
Turning to `Cc1cnc(-c2ccccc2)n1C1CN(S(=O)(=O)c2cccc(F)c2)C1`, the RP-LC retention time is 670 s.
The result for `O=S(=O)(Cc1ccccc1Cl)N1CCc2nc(-c3ccc(Cl)cc3)ncc2C1` reads 1220 s.
The result for `Cc1ccc2nc(C(=O)N3CCN(c4cccc(C)c4C)CC3)cn2c1` reads 804 s.
The result for `CN(Cc1nc2cc(C(=O)N3CCCC3)ccc2n1C)C(=O)Nc1ccc2c(c1)OCCO2` reads 688 s; that for `COC(=O)c1sccc1S(=O)(=O)N1CCC(C(N)=O)(N2CCCCC2)CC1`, 580 s.
In the case of `Cc1ccsc1CCNC(=O)C1CCN(S(=O)(=O)c2c(C)nn(-c3ccccc3)c2C)CC1`, the RP-LC retention time amounted to 955 s.
The result for `O=C(Cn1cccc1-c1nnc(C2CC2)o1)NCc1ccc2c(c1)OCO2` reads 749 s.
The result for `COc1ccc(-c2nc3cccnc3n2C2CCN(S(=O)(=O)c3ccccc3)C2)cc1` (stereo not drawn) reads 778 s; that for `CCOc1ccc(NC(=O)C2CCN(c3cc(Oc4ccc(CC)cc4)ncn3)CC2)cc1`, 1080 s.
The result for `c1ccc(OCc2nc(-c3ccc4c(c3)ncn4CCN3CCCCC3)no2)cc1` reads 652 s; that for `COc1ccc(-c2nc3cnccn3c2Nc2ccc(C(=O)NC(C)C)cc2)cc1OC`, 661 s.
On to `COc1ccc(-c2ncc3c(=O)n(Cc4cccc(OC)c4)c(=O)n(C)c3n2)cc1`, for which the RP-LC retention time was found to be 1130 s.
The result for `COc1ccccc1N1CCN(C(=O)CCc2nnc3c4cc(-c5ccccc5)nn4ccn23)CC1` reads 763 s; that for `CCC(C)NC(=O)C1CCCN(C(=O)c2cc(-c3ccccn3)n[nH]2)C1` (stereo not drawn), 611 s; that for `CCn1cc(-c2nc(C(=O)Nc3ccc(C)c(F)c3)cs2)c2cccnc21`, 987 s.
The result for `CC1(C)CC(=O)C2=C(C1)Nc1ccccc1N(CC(=O)NC1CCCC1)C2c1ccc(F)cc1` (stereo not drawn) reads 863 s.
The result for `Cc1c(CNCc2ccco2)c(C(=O)O)c(C)n1Cc1cccc(F)c1` reads 684 s; that for `N#Cc1ccc(NC(=O)Cn2cc(-c3ccccc3)c3ncn(C4CC4)c(=O)c32)cc1`, 885 s; that for `C=C1CC(COc2cc(=O)oc3ccccc23)(c2ccccc2)OC1=O` (stereo not drawn), 885 s.
Molecule `CCOC(=O)c1sc(NC(=O)C2CCC2)nc1-c1ccccc1` returned an RP-LC retention time of 1010 s.
The result for `CCN(CC)CCNC(=O)c1cc(Br)c(N)cc1OC` reads 645 s; that for `Cc1ccc(-n2nc3c(=O)n(CCCC(=O)N4CCC(C(N)=O)CC4)nc(C)c3c2C)cc1`, 648 s; that for `CCC(C)n1c(=O)c2ccccc2n(Cc2nc(-c3cccc(Cl)c3)no2)c1=O` (stereo not drawn), 1270 s.
The result for `CCn1ccnc1N1CCN(C(=O)COc2ccc(Cl)cc2Cl)CC1` reads 593 s.
The result for `O=C(O)CSc1nnc(-c2ccc(Cl)cc2Cl)n1Cc1ccccc1` reads 771 s.
